Data from article PMC10299677, “Fluorinated Benzofuran and Dihydrobenzofuran as Anti-Inflammatory and Potential Anticancer Agents” (International Journal of Molecular Sciences, 2023).
Entries after “also recorded” stand apart in the source; their conditions may differ.

The compounds below were run on PGE2 (assay: PGE2 release in LPS-treated macrophages (BMDM)). Settings: 10 µM for compounds 1, 7, 9, 50 µM for others, 10 ng/mL LPS 24 h.
Assay type: cell-based, C57BL/6J mice
Experimental: (§1) C57BL/6J (10–15 weeks old) male mice were obtained from the animal care facility at the American University of Beirut. All animal procedures were performed following the recommendations of the IACUC (Institutional Animal Care and Use Committee approval 16-09-M379). BMDMs were prepared and characterized as described previously by our group. BMDMs were isolated from C57BL/6J mice by flushing the femur and tibia with RPMI-1640 culture media (Sigma-Aldrich R7388), and cells were collected and centrifuged at 300× g for 5 min. The supernatant was discarded, and the pellet was resuspended in 2 mL red blood lysis 10% (Sigma-Aldrich R7767) medium in PBS and incubated for 5 min at room temperature. After diluting the suspension of cells with 5 mL of RPMI containing 10% FBS and 1% penicillin–streptomycin, cells were centrifuged at 300× g for 5 min, and the cell pellet was resuspended in RPMI media containing 10% FBS supplemented with 15% L929-conditioned medium containing macrophage-colony stimulating factor (M-CSF1) and plated on […]. Cells were allowed to proliferate and differentiate for 5–6 days. Cells were harvested, washed, and allowed to adhere overnight in RPMI containing 10% FBS for treatment. Cells were previously characterized by flow cytometry as macrophages using this method. […] Cells were plated at 0.8 × 10^6 cells per 3.8 cm^2 well [27].
(§2) BMDMs were then treated with different concentrations of the benzofuran and dihydrobenzofuran derivatives for 30 min prior to the addition of 10 ng/mL LPS for 24 h. […] The supernatants were assessed for IL-6, PGE2, CCL2, and nitrite, the stable derivative of NO, as described previously.
(§3) IL-6, CCL2, nitrite (for NO), and PGE2 concentrations from 3–5 independent experiments were expressed as percentage of LPS alone and as mean ± SEM. COX activity was determined as percentage of PGE2 produced from exogenous arachidonic acid. Curve fitting and calculation of IC50 values were performed using GraphPad Prism (version 9.5.1 Software, La Jolla, CA, USA).
O=C(O)Cc1oc2ccc(-c3ccccc3)cc2c1F [Compound 5] was tested, and the “effect on PGE2 production in response to LPS” value (“effect on PGE2 production” for short) was “very potent inhibitors”.
In the case of C=C(C)c1ccc2oc(CC(=O)O)c(F)c2c1 [Compound 6], the “effect on PGE2 production” value is reported as “very potent inhibitors”.
In the case of COC(=O)CC1(O)Oc2ccc(Br)cc2C1(F)F (stereo not drawn) [Compound 8], the “effect on PGE2 production” value is reported as “inhibited partial; also recorded: partial inhibition”.

Same assay, conditions: 50 µM, 10 ng/mL LPS 24 h
With O=C(O)/C=C1/Oc2ccc(Br)cc2C1(F)F [Compound 2] the “blocking of PGE2 formation in response to LPS” value was “more than 50%”.
In the case of O=C(O)/C=C1\Oc2ccc(Br)cc2C1(F)F [Compound 3], the “blocking of PGE2 formation in response to LPS” value is reported as “more than 50%”.

Same assay, conditions: Mus musculus, Macrophage, compounds 30 min prior to 10 ng/mL LPS for 24 h
O=C(O)/C=C1/Oc2ccc(Br)cc2C1(F)F [Compound 2] gave an IC50 of 1.92 µM.
Compound O=C(O)/C=C1\Oc2ccc(Br)cc2C1(F)F [Compound 3] has an IC50 of 1.48 µM.
O=C(O)Cc1oc2ccc(-c3ccccc3)cc2c1F [Compound 5] showed an IC50 of 1.92 µM.
C=C(C)c1ccc2oc(CC(=O)O)c(F)c2c1 [Compound 6] gave an IC50 of 1.12 µM.
For COC(=O)CC1(O)Oc2ccc(Br)cc2C1(F)F (stereo not drawn) [Compound 8], the IC50 was 20.5 µM.

Same assay, conditions: compounds 30 min prior to 10 ng/mL LPS for 24 h
Work on O=C(O)/C=C1/Oc2ccc(Br)cc2C1(F)F [Compound 2] yielded an IC50 of 1.91 µM.

What follows are compounds tested on IL-6 (assay: IL-6 release in LPS-treated macrophages (BMDM)). Settings: 50 µM, LPS 24 h.
Assay type: cell-based, C57BL/6J mice
Experimental: as §1, §2, §3
For O=C(O)/C=C1/Oc2ccc(Br)cc2C1(F)F [Compound 2], the “decrease of IL-6 production” value was “more than 50%”.
In the case of O=C(O)/C=C1\Oc2ccc(Br)cc2C1(F)F [Compound 3], the “decrease of IL-6 production” value is reported as “more than 50%”.
In the case of COC(=O)CC1(O)Oc2ccc(Br)cc2C1(F)F (stereo not drawn) [Compound 8], the “decrease of IL-6 production” value is reported as “more than 50%”.

Same assay, conditions: Mus musculus, Macrophage, compounds 30 min prior to 10 ng/mL LPS for 24 h
Compound O=C(O)/C=C1/Oc2ccc(Br)cc2C1(F)F [Compound 2] has an IC50 of 1.23 µM.
Compound O=C(O)/C=C1\Oc2ccc(Br)cc2C1(F)F [Compound 3] has an IC50 of 5.21 µM.
Work on COC(=O)CC1(O)Oc2ccc(Br)cc2C1(F)F (stereo not drawn) [Compound 8] yielded an IC50 of 9.04 µM.

These compounds were tested on CCL2 (assay: CCL2 release in LPS-treated macrophages (BMDM)). Settings: 10 µM for compound 1, 50 µM for others, LPS 24 h.
Assay type: cell-based, C57BL/6J mice
Experimental: as §1, §2, §3
With COC(=O)/C=C1/Oc2ccc(Br)cc2C1(F)F [Compound 1] the “effect on CCL2 secretion” value was “moderate effect”.
In the case of O=C(O)/C=C1/Oc2ccc(Br)cc2C1(F)F [Compound 2], the “effect on CCL2 secretion” value is reported as “significant decreases”.
With O=C(O)/C=C1\Oc2ccc(Br)cc2C1(F)F [Compound 3] the “effect on CCL2 secretion” value was “significant decreases”.
In the case of COC(=O)CC1(O)Oc2ccc(Br)cc2C1(F)F (stereo not drawn) [Compound 8], the “effect on CCL2 secretion” value is reported as “significant decreases”.

Same assay, conditions: Mus musculus, Macrophage, compounds 30 min prior to 10 ng/mL LPS for 24 h
Work on COC(=O)/C=C1/Oc2ccc(Br)cc2C1(F)F [Compound 1] yielded an IC50 of 8 µM.
In the case of O=C(O)/C=C1/Oc2ccc(Br)cc2C1(F)F [Compound 2], the IC50 is reported as 1.52 µM.
O=C(O)/C=C1\Oc2ccc(Br)cc2C1(F)F [Compound 3] was tested, and the IC50 was 1.5 µM.
COC(=O)CC1(O)Oc2ccc(Br)cc2C1(F)F (stereo not drawn) [Compound 8] showed an IC50 of 19.3 µM.

These compounds were tested against T1, COX-2 (Mus musculus, UniProt Q05769) (assay: COX-2 activity: PGE2 from exogenous arachidonic acid in aspirin-pretreated, 24 h LPS-treated macrophages). Settings: 50 µM, aspirin-pretreated LPS-treated macrophages, 10 µM arachidonic acid.
T1 construct: prior to the addition of LPS for 24 h to induce COX-2; endogenous in cells; host or cells: Bone marrow-derived macrophages from C57BL/6J mice, aspirin-pretreated, then LPS 24 h
T1 sequence (Q05769 18-604): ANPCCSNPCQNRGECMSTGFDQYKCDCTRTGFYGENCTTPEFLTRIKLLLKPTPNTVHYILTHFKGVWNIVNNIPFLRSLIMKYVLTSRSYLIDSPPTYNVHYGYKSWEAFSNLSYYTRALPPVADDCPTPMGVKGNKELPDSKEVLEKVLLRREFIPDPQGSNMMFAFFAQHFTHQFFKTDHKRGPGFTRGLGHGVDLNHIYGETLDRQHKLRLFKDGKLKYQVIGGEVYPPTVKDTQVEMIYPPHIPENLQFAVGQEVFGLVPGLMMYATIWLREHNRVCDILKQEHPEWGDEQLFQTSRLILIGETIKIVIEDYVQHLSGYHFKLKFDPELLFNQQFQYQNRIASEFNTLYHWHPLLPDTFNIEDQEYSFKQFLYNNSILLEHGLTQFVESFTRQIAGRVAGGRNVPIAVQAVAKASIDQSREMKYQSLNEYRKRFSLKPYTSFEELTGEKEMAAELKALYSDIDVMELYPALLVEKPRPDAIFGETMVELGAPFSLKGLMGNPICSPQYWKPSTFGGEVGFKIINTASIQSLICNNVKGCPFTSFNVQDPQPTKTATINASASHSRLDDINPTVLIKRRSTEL
Assay type: cell-based, C57BL/6J mice
Experimental: (A) Illustration for COX-1 activity assay. […] (B) COX-1 activity. […] (C) Illustration for COX-2 activity determination. Macrophages are treated with 10 µM of aspirin (ASA) for 30 min to block basal COX activity, washed, and treated with 10 ng/mL LPS for 24 h to induce COX-2. Cells are then washed and incubated 30 min with 50 µM of the different compounds prior to the addition of 10 µM of AA. The produced PGE2 mainly reflects COX-2 activity. (D) COX-2 activity. Percentage of LPS-treated cells was calculated, and data are represented as mean ± SEM (n = 4); * p < 0.05 versus AA for COX-1 activity, and versus LPS + ASA + AA for COX-2 activity (one-way ANOVA followed by Dunnett’s test).
For both COX-1 and COX-2 assays, the benzofuran compounds were then added to the cells for 30 min prior to the incubation with 10 µM arachidonic acid for another 30 min. PGE2 was then measured using an enzyme immunoassay, as described previously.
as §3
With O=C(O)/C=C1\Oc2ccc(Br)cc2C1(F)F [Compound 3] the “effect on COX-2 activity” value was “slight reduction”.
With O=C(O)Cc1oc2ccc(-c3ccccc3)cc2c1F [Compound 5] the “effect on COX-2 activity” value was “strongly reduced; also recorded: direct inhibitory effect”.
C=C(C)c1ccc2oc(CC(=O)O)c(F)c2c1 [Compound 6] was tested, and the “effect on COX-2 activity” value was “strongly reduced; also recorded: direct inhibitory effect”.
COC(=O)CC1(O)Oc2ccc(Br)cc2C1(F)F (stereo not drawn) [Compound 8] was tested, and the “effect on COX-2 activity” value was “without any effect”.

Same assay, conditions: aspirin-pretreated, 24 h LPS-treated macrophages, 10 µM arachidonic acid
O=C(O)Cc1oc2ccc(-c3ccccc3)cc2c1F [Compound 5] gave an IC50 of 28.1 µM.
Work on C=C(C)c1ccc2oc(CC(=O)O)c(F)c2c1 [Compound 6] yielded an IC50 of 13 µM.

Each compound was assayed on CCL2 mRNA (assay: LPS-dependent CCL2 mRNA in THP-1-derived macrophages (RT-PCR)). Settings: 50 µM, 10 ng/ml LPS 6 h.
Assay type: cell-based, human
Experimental: F i g u re S3: Eff ect of benzofuran compounds on the lev els of LP S -dependent mRNA of CCL2 and IL-6 in THP-1 –deriv ed macrophages. Human-monoc yti c cell l ine-THP-1 wer e treat ed with PMA (25 nM for 48 hours) th en in cub ated with 50 μM compounds for 30 minutes b efo re the addit ion of 10 ng/ml LP S fo r 6 hours. Gene ex pression of IL6 and CCL2 were measur ed by RT-PCR and the v alu es wer e nor mal ized to GAPDH. Results represent means ± SEM by one way ANOVA followed by Dunnett test.
With COC(=O)/C=C1/Oc2ccc(Br)cc2C1(F)F [Compound 1] the “effect on CCL2 mRNA levels” value was “decreased significantly”.
For O=C(O)/C=C1/Oc2ccc(Br)cc2C1(F)F [Compound 2], the “effect on CCL2 mRNA levels” value was “decreased significantly”.
